Source: article PMC10804407, “Rombocin, a Short Stable Natural Nisin Variant, Displays Selective Antimicrobial Activity against Listeria monocytogenes and Employs a Dual Mode of Action to Kill Target Bacterial Strains” (ACS Synthetic Biology, 2024)
Converted amounts (≈) assume the structure as drawn. Read-outs that look alike come from different tables or passages of the source. Primed or numbered codes have the meaning given here. Where no end group is shown, it is not given here. [ ]: non-standard residue; d: D form. Dhb′ = not defined here; Dha = C=C(N)C(=O)O

Legend:
[1] = system: L. lactis MG1363; assay: Time-kill assay; assay type: cell-based, Lactococcus lactis; details: L. lactis, 5-fold MIC, time-dependent killing
Procedure: The bactericidal activity of nisin, nisin(1–22), and rombocin was evaluated according to a previously described procedure based on Guo et al.[38] Briefly, an overnight culture of L. lactis MG1363 was diluted 50-fold in GM17 medium and incubated at 30 °C. The bacteria were grown until reaching an optical density at 600 nm (OD600) of 0.5, at which point the cell concentration was adjusted to 5 × 10^5 CFU/mL. Subsequently, the bacteria were challenged with a 5-fold MIC of each peptide. A control sample of an untreated cell suspension was included. At specific time points, 50 μL aliquots were collected, and undiluted and 10-fold serially diluted suspensions were plated on GM17 agar. The plates were incubated overnight at 30 °C, and the resulting colonies were counted and calculated as colony-forming units per milliliter (CFU/mL). Both assays were performed in triplicate to ensure reproducibility.

[2] = system: L. lactis; assay: Fluorescence microscopy assay of membrane integrity (SYTO 9 / propidium iodide); assay type: cell-based, Lactococcus lactis; details: 5× MIC, 15 min / 20 min (method), room temperature
Procedure: L. lactis was cultured until it reached an OD600 of 0.8 and then pelleted at 8000g for 5 min and washed three times in 0.7% NaCl. The cell density was normalized to an OD600 of 0.4 in 0.7% NaCl, and a concentration of 5-fold MIC value of each tested antibiotic was added to the cell suspension simultaneously with SYTO 9 and propidium iodide using the LIVE/DEAD Baclight Bacterial Viability Kit (Invitrogen). After incubation at room temperature for 20 min, the compounds were removed by washing the cells with 0.7% NaCl. Finally, the cell suspensions were loaded onto 1.5% agarose pads and analyzed with a DeltaVision Elite microscope (Applied Precision).

[3] = system: L. lactis; assay: Potassium ion efflux assay (PBFI probe); assay type: cell-based, Lactococcus lactis; details: 5× MIC, 10 mM HEPES pH 7.2 with 0.5% glucose, 10 μM PBFI
Procedure: To perform the K^+ release assay, we used the K^+-specific fluorescent probe PBFI. L. lactis was cultured in GM17 until the OD600 reached 0.6, after which the cells were harvested (5000g, 5 min) and washed twice with 10 mM HEPES (pH 7.2) with 0.5% glucose. The cells were then resuspended in the same buffer containing 10 μM PBFI. Data were analyzed using a Varioskan LUX Multimode Microplate Reader; cells were excited at 346 nm, and the fluorescence emission was measured at 505 nm to establish a baseline signal before the addition of 5-fold MIC antibiotics, after which data were collected. Nisin was used as a positive control.

[4] = system: L. lactis; assay: Membrane potential determination (DiSC3(5) probe); assay type: cell-based, Lactococcus lactis; details: 5× MIC, 10 mM HEPES with 10 mM glucose pH 7.2, 2 μM DiSC3(5), 25 min
Procedure: To measure the membrane potential, the membrane potential-sensitive fluorescent dye DiSC3(5) was utilized. L. lactis was cultured to an OD600 of 0.8, pelleted at 5000g for 5 min, and washed twice in 10 mM HEPES with 10 mM glucose (pH 7.2). The cell density was adjusted to an OD600 of 0.2 and loaded with 2 μM DiSC3(5) dye, followed by 20 min of incubation in the dark to stabilize the probe fluorescence. Next, the cell suspension was added to a 96-well microplate and incubated for 5 min with 100 mM KCl. […] The fluorescence spectrometer’s excitation and emission wavelengths were adjusted to 622 and 670 nm, respectively. Three technical replicates were performed, and the representative example is shown.

[5] = system: L. lactis MG1363; assay type: cell-based, Lactococcus lactis
Procedure: (§1) Each experiment was performed in triplicate.

[6] = system: L. monocytogenes LK132; assay type: cell-based, Listeria monocytogenes
Procedure: as §1

[7] = system: L. monocytogenes LMG10470; assay type: cell-based, Listeria monocytogenes
Procedure: as §1

[8] = system: L. monocytogenes TT82E; assay type: cell-based, Listeria monocytogenes
Procedure: as §1

[9] = system: Bacillus cereus CH-85; assay type: cell-based
Procedure: as §1

[10] = system: S. aureus LMG10147; assay type: cell-based, Staphylococcus aureus
Procedure: as §1

[11] = system: S. aureus LMG15975 (MRSA); assay type: cell-based, Staphylococcus aureus
Procedure: as §1

[12] = system: E. faecium LMG11423; assay type: cell-based, Enterococcus faecium
Procedure: as §1

[13] = system: E. faecium LMG16003 (VRE); assay type: cell-based, Enterococcus faecium
Procedure: as §1

[14] = system: E. faecalis LMG16216 (VRE); assay type: cell-based, Enterococcus faecalis
Procedure: as §1

[15] = system: trypsin, chymotrypsin, and proteinase K; assay: Stability against proteolytic enzymes by residual antimicrobial activity; assay type: in vitro ADME; details: 40 μL peptide (1 mg/mL) with 1 mg/mL proteolytic enzymes, room temperature, 3 h; residual activity in agar well vs L. lactis 1363; triplicate
Procedure: To investigate the impact of proteolytic enzymes, pH, and temperature on the antimicrobial activity, a representative strain of L. lactis 1363 was utilized. For the proteolytic enzyme assay, 40 μL of peptide (1 mg/mL) was incubated with or without final concentrations of 1 mg/mL proteolytic enzymes at room temperature for 3 h, followed by an activity test in the agar well. To determine pH stability, the pH was adjusted to 2, 4, 7, and 10 using 1 M HCl or NaOH. The temperature stability was assessed by incubating the peptide at 22, 50, 70, and 90 °C for a specified duration. All experiments were performed in triplicate.
Overnight cultures of the test strains were inoculated at a final concentration of 0.1% (v/v) into melted LB agar at 45 °C and then poured onto plates. After solidification, 8 mm wells were created and filled with 40 μL of the lantibiotic solution (1 mg/mL). The lantibiotics were activated by adding 5 μL of NisP directly to the well. The plates were then incubated overnight at 30 °C, and the zone of inhibition was measured. Zone diameters were calculated by subtracting the area of the well (πr^2) from the area of the zone (πr^2) and reported in millimeters. To determine the peptide concentration, purified and lyophilized peptides were resuspended in 0.05% aqueous acetic acid solution and quantified by HPLC following the protocol described by Schmitt et al.[44] […]

[16] = system: L. monocytogenes LMG10470; assay: Agar well diffusion assay and mutant-activity test; assay type: cell-based, Listeria monocytogenes; details: 40 μL of 1 mg/mL, zone of inhibition, triplicate
Procedure: Overnight cultures of the test strains were inoculated at a final concentration of 0.1% (v/v) into melted LB agar at 45 °C and then poured onto plates. After solidification, 8 mm wells were created and filled with 40 μL of the lantibiotic solution (1 mg/mL). The lantibiotics were activated by adding 5 μL of NisP directly to the well. The plates were then incubated overnight at 30 °C, and the zone of inhibition was measured. Zone diameters were calculated by subtracting the area of the well (πr^2) from the area of the zone (πr^2) and reported in millimeters. To determine the peptide concentration, purified and lyophilized peptides were resuspended in 0.05% aqueous acetic acid solution and quantified by HPLC following the protocol described by Schmitt et al.[44] All experiments were performed in triplicate.

“nisin(1–22): truncated nisin variant, bacteriostatic control that only binds lipid II (I[Dhb′]SI[Dha]LCTPGCKTGALMGCNMK; also: lantibiotic: thioether rings and dehydrated residues not placed; UniProt P13068 24-45, looked up, fragment)” was tested, and the “bacteriostatic or bactericidal activity” value [1] was “bacteriostatic effect”, the “membrane integrity (SYTO 9 / propidium iodide fluorescence)” value [2] was “did not cause any significant membrane disruption” and the “release of intracellular potassium ions (PBFI fluorescence)” value [3] was “did not have this effect”. For the same compound, the “membrane depolarization (DiSC3(5) fluorescence)” value [4] was “did not”.

With `C=C(NC(=O)[C@@H](NC(=O)[C@H](Cc1c[nH]cn1)NC(=O)[C@@H](NC(=O)[C@H](CO)NC(=O)[C@@H]1CS[C@@H](C)[C@H]2NC(=O)[C@H](C)NC(=O)[C@H](NC(=O)[C@H](CCCCN)NC(=O)[C@H](CCSC)NC(=O)[C@H](CC(N)=O)NC(=O)[C@@H]3CS[C@@H](C)[C@@H](NC(=O)[C@H](CCCCN)NC(=O)[C@@H]4CS[C@@H](C)[C@@H](NC(=O)[C@@H]5CSC[C@@H](NC(=O)/C(=C/C)NC(=O)[C@@H](N)[C@@H](C)CC)C(=O)N[C@@H]([C@@H](C)CC)C(=O)NC(=C)C(=O)N[C@@H](CC(C)C)C(=O)N5)C(=O)N5CCC[C@H]5C(=O)NCC(=O)N4)C(=O)NCC(=O)N[C@@H](C)C(=O)N[C@@H](CC(C)C)C(=O)N[C@@H](CCSC)C(=O)NCC(=O)N3)[C@H](C)SC[C@H](NC2=O)C(=O)N[C@@H](CC(N)=O)C(=O)N1)[C@@H](C)CC)C(C)C)C(=O)N[C@@H](CCCCN)C(=O)O` [nisin Z, reference compound] the MIC ([5]; L. lactis MG1363, broth microdilution, lowest concentration with no visible growth, triplicate) was 0,02 μg/mL, the “fold lower MIC of nisin than that of rombocin” value ([5]; against L. lactis) was 40 times and the MIC ([6]; L. monocytogenes LK132, broth microdilution, no visible growth, triplicate) was 12,5 μg/mL. For the same compound, the “fold lower MIC of nisin than rombocin A” value ([6]; against L. monocytogenes LK132) was 2 fold, the MIC ([7]; L. monocytogenes LMG10470, broth microdilution, no visible growth, triplicate) was 3,13 μg/mL and the MIC ([8]; L. monocytogenes TT82E, broth microdilution, no visible growth, triplicate) was 1,56 μg/mL. For the same compound, the MIC ([9]; Bacillus cereus CH-85, broth microdilution, no visible growth, triplicate) was 6,25 μg/mL, the “fold lower MIC of nisin than rombocin A” value ([9]; against Bacillus cereus) was 4 fold and the MIC ([10]; S. aureus LMG10147, broth microdilution, no visible growth, triplicate) was 6,25 μg/mL. The “fold lower MIC of nisin than rombocin A” value ([10]; against S. aureus (strain not given)) was 16 fold, the MIC ([11]; S. aureus LMG15975 (MRSA), broth microdilution, no visible growth, triplicate) was 6,25 μg/mL and the MIC ([12]; E. faecium LMG11423, broth microdilution, no visible growth, triplicate) was 3,13 μg/mL. For the same compound, the “fold higher antimicrobial activity of nisin than rombocin A (MIC)” value ([12]; against Enterococcus faecium (strain not given)) was 32 times, the MIC ([13]; E. faecium LMG16003 (VRE), broth microdilution, no visible growth, triplicate) was 3,13 μg/mL and the MIC ([14]; E. faecalis LMG16216 (VRE), broth microdilution, no visible growth, triplicate) was 3,13 μg/mL. The “fold lower MIC of nisin than rombocin A” value ([14]; against Enterococcus faecalis) was 16 fold, the “membrane integrity (SYTO 9 / propidium iodide fluorescence)” value [2] was “membrane disruption” and the “release of intracellular potassium ions (PBFI fluorescence)” value [3] was “immediate increase in signal”. The “membrane depolarization (DiSC3(5) fluorescence)” value [4] was “significant membrane depolarization, similar to nisin” and the “resistance to proteolytic enzymes” value [15] was “varying stability”.

With `C=C1NC(=O)[C@H]([C@@H](C)CC)NC(=O)[C@H](NC(=O)/C(=C/C)NC(=O)[C@@H](N)[C@@H](C)CC)CSC[C@@H](C(=O)N[C@H]2C(=O)N[C@@H](C)C(=O)NCC(=O)N[C@H](C(=O)N[C@@H](CCCCN)C(=O)N[C@H]3C(=O)NCC(=O)N[C@@H](C(C)C)C(=O)N[C@@H]([C@@H](C)CC)C(=O)N[C@@H](CCSC)C(=O)N/C(=C\C)C(=O)N[C@H](C(=O)N[C@@H](CCSC)C(=O)N[C@@H]4CSC[C@@H](C(=O)N[C@@H](CCCCN)C(=O)O)NC(=O)CNC(=O)[C@H](CC(N)=O)NC4=O)CS[C@H]3C)CS[C@H]2C)NC(=O)[C@H](CC(C)C)NC1=O` [rombocin K] the MIC ([5]; MG1363) was 0,78 μg/mL, the MIC ([6]; LK132) was 12,5 μg/mL and the MIC ([7]; LMG10470) was 12,5 μg/mL. The “fold lower MIC compared to the wild-type rombocin” value ([7]; against all tested Listeria strains) was 2 fold, the MIC ([8]; TT82E) was 6,25 μg/mL and the MIC ([9]; CH-85) was 25 µg/mL (≈ 10.4 µM). It also gave an MIC ([10]; LMG10147) of 100 µg/mL (≈ 41.7 µM), an MIC ([11]; LMG15975) of 100 µg/mL (≈ 41.7 µM) and an MIC ([12]; LMG11423) of 50 µg/mL (≈ 20.9 µM). For the same compound, the MIC ([13]; LMG16003) was 50 µg/mL (≈ 20.9 µM), the MIC ([14]; LMG16216) was 50 µg/mL (≈ 20.9 µM) and the “increase in antimicrobial activity relative to wild-type rombocin” value [16] was 13%.
